Laboratory results taken from patent US12264150B2, “NR4A1 ligands, pharmaceutical compositions, and related methods of use” (The Texas A&M University System, priority 2017, dated 2025).
“Also recorded” adds a separate entry of the source.

Legend:
[1] = tested on: human MDA-MB-231 breast cancer cells; experiment: Orthotopic breast tumor growth in athymic nude mice; format: in vivo, mouse; details: for tumor growth: 10 mg/kg/day, athymic nude mice, orthotopic model; for ED50 values for tumor growth inhibition: expected from the 10 mg/kg/day result
Experimental: FIGS. 12A-12C graphically illustrate mammary tumor volume in an athymic nude mouse xenograft model using human MDA-MB-231 breast cancer cells treated with 4-hydroxy C-DIM analogs (10 mg/kg/day) (black) relative to a control (gray), according to embodiments of the present disclosure;

NR4A1, Rab4, AMPK = experiment: Western blots of whole cell lysates of C2C12 muscle cells; format: cell-based, murine; details: western blot
Description: FIGS. 25A-25D are images of western blots of whole cell lysates of C2C12 cells treated with C-DIM analogs, according to embodiments of the present disclosure;
(§1) There is also evidence that NR4A1 plays a role in enhancing glucose metabolism in muscle and this is consistent with potential anti-diabetic activity for NR4A1 ligands which has previously been reported for cytosporone-derived NR4A1 ligands in mouse models. Initial studies with DIM-C-pPhOH and second generation substituted analogs used C2C12 muscle cells as a model for investigating the anti-diabetic activity of these compounds. FIGS. 25A-25D illustrate that NR4A1 is expressed in C2C12 cells and treatment with C-DIM8 (DIM-C-pPhOH) or the second generation substituted C-DIM8 analogs 3,5-dibromo-(C-DIM8-3,5-Br2), 3-chloro-(C-DIM8-3-Cl), and 3-chloro-5-methoxy-(C-DIM8-3-Cl-5-OCH3) increased expression of NR4A1 in C2C12 cells.

GAL4-NR4A1 = experiment: GAL4-NR4A1/UAS-Luc transactivation (luciferase) in Panc1 cells; format: cell-based
Description: (§2) FIG. 2 graphically illustrates luciferase activity in Panc1 cells transfected with GAL4-NR4A1 and GAL4-NR4A2 and UAS-Luc (GAL4-binding luciferase construct) treated with 4-, 3- and 2-hydroxy C-DIM analogs according to embodiments of the present disclosure;
Therefore, nine substituted 4-hydroxy analogs were synthesized to investigate their relative potencies as NR4A1 ligands and their half-lives since some of the substituents buttress the hydroxy group. Their effects on activation/inactivation of GAL4-NR4A1 and GAL4-NR4A2 in Panc1 cells were determined (see FIGS. 9 and 13).

SERPINB5 [2] = experiment: SERPINB5 induction (western blot) in SKBR3 breast cancer cells; format: cell-based; details: for potency order for inducing SERPINB5: western blot, FIGS. 3 and 5
Description: FIG. 5 includes images of western blots of SKBR3 (breast) cancer cells treated with 4-, 3- and 2-hydroxy C-DIM compounds, according to embodiments of the present disclosure, showing up-regulation of expression of SERPINB5;
In this study, the DMSO (control) value was relatively high, resulting in low induction by the 4-hydroxy compound, whereas in other experiment induction was observed due to lower basal SERPINB5 levels.

β1-integrin and TXNDC5 = experiment: Western blot down-regulation of β1-integrin and TXNDC5 in Panc1 and SKBR3 cells; format: cell-based; details: FIG. 3
Description: FIG. 3 includes images of western blots of Panc1 (pancreatic) and SKBR3 (breast) cancer cells treated with monohydroxy C-DIM compounds, according to embodiments of the present disclosure, showing down-regulation of expression of two NR4A1-dependent factors, β1-integrin and TXNDC5;
Compared to the 4-bromo standard NR4A2 ligand, the 3- and 2-hydroxy isomers had minimal NR4A2 activity. […] The results correlate with the transactivation data.

GAL4-NR4A2 = experiment: GAL4-NR4A2/UAS-Luc transactivation (luciferase) in Panc1 cells; format: cell-based
Description: as §2
FIG. 13 graphically illustrates luciferase activity in Panc1 cells transfected with GAL4-NR4A2 and UAS-Luc treated with 3-hydroxy C-DIM analogs, according to embodiments of the present disclosure;
FIG. 15 graphically illustrates luciferase activity in Panc1 cells transfected with GAL4-NR4A2 and UAS-Luc treated with 2-hydroxy C-DIM analogs, according to embodiments of the present disclosure;

RMS xenograft tumor = experiment: RMS mouse xenograft tumor growth
G6Pase and PEPCK = G6Pase and PEPCK in glucose-starved HepG2 cells; format: cell-based
PFKM, PGAM2, BPGM, PYGM = experiment: mRNA expression of glycolytic genes in C2C12 cells; format: cell-based, murine
Description: FIGS. 28A-28E graphically illustrate relative mRNA expression of glycolytic genes in C2C12 cells treated with DIM-C-pPhOH (A), DIM-C-pPhOH-3,5-Br2 (B), DIM-C-pPhOH-3-Cl (C), and DIM-C-pPhOH-3-Cl-5-OCH3 (D) for 24 hr, or cells were transfected with NR4A1 expression plasmid (E);
Overexpression of NR4A1 in C2C12 cells induces several genes involved in glycolysis including phosphofructokinase (PFKM), phosphoglycerate mutase 2 (PGAM2), bisphosphoglycerated mutase (BPGM), and glycogen phosphorylase M (PYGM).

[3] = tested on: NR4A1 and GLUT-4 gene expression; experiment: NR4A1/GLUT-4 mRNA expression in C2C12 cells; format: cell-based, murine
Description: FIGS. 26A-26D graphically illustrate relative NR4A1/glucose transporter 4 (GLUT-4) mRNA expression in C2C12 cells treated with C-DIM analogs, according to embodiments of the present disclosure;
as §1

[4] = Blood glucose in C57BL/6 mice on a high-fat diet; format: in vivo, mouse
NR4A2 LBD = biological target: T1, NR4A2 LBD (Homo sapiens, UniProt P43354); experiment: Surface plasmon resonance binding, immobilized NR4A2 LBD; details: 5 or 10 μM ligand, 25° C., Biacore 3000, CM5 chip
T1 construct: Purified NR4A1 and NR4A2 LBD proteins were covalently immobilized
T1 sequence (P43354 360-595 limits assumed, species assumed): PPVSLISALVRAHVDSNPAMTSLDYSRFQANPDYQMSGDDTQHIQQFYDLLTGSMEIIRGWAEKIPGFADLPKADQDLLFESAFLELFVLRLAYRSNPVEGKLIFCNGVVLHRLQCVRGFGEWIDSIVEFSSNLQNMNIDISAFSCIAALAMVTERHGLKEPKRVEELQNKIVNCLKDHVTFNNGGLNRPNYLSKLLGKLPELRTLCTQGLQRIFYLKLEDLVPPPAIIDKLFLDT
Experimental: (§3) Binding experiments were performed using the SPR method at 25° C. on Biacore 3000 system (GE Healthcare). Purified NR4A1 and NR4A2 LBD proteins were covalently immobilized on CM5 sensor chip (GE) using an amine coupling procedure. Alternatively, the more expensive his-tag-binding NTA sensor chip (GE) can be used to insure correct protein surface orientation. SPR response curves (sensorgrams) were generated after ligand injection using 5 or 10 μM DIM-C-pPhX analogs with X=Br (#2), X═OH (#8), X═CN (#10) and X═CO2Me (#14) (see FIG. 22).

NR4A1 LBD = biological target: T2, NR4A1 LBD (Homo sapiens, UniProt P22736); experiment: Surface plasmon resonance binding, immobilized NR4A1 LBD; details: 5 or 10 μM ligand, 25° C., Biacore 3000, CM5 chip
T2 construct: Purified NR4A1 and NR4A2 LBD proteins were covalently immobilized
T2 sequence (P22736 360-595 limits assumed, species assumed): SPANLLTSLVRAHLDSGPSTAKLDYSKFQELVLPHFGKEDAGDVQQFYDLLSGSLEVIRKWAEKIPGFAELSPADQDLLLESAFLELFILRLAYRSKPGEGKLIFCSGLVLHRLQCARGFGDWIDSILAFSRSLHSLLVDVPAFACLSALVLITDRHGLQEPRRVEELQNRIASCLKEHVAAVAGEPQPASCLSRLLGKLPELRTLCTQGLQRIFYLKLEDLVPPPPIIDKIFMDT
Experimental: as §3

tumor growth = details: cited from earlier work
TXNDC5 and PAX3-FOX01A = experiment: Western blot of NR4A1-regulated gene products in Rh30 rhabdomyosarcoma cells; format: cell-based; details: 20 μM
Description: FIG. […]
The effects of the 4-hydroxy reference compound and the nine analogs were compared with respect to down-regulation of two NR4A1-regulated gene products in Rh30 rhabdomyosarcoma cells, namely TXNDC5 and PAX3-FOX01A. […] The results also indicate that NR4A1-dependent transactivation assays appear to be less predictive than NR4A1-regulated gene products in determining differences in NR4A1 antagonist potencies.

[5] = cited from earlier work
C2C12 cells = experiment: Glucose uptake in C2C12 cells; format: cell-based, murine; details: 15 and 20 μM
Description: FIG. 27 graphically illustrates glucose uptake in C2C12 cells treated with C-DIM analogs, according to embodiments of the present disclosure;

SERPINB5 [6] = experiment: SERPINB5 induction (western blot) in Panc1 cells; format: cell-based; details: 20 μM
cancer cell lines = details: cited from earlier work
NR4A1 = NR4A1 (Homo sapiens, UniProt P22736); experiment: NR4A1 binding affinity of the 4-hydroxy compound
NR4A1, sequence (P22736 whole entry, species assumed): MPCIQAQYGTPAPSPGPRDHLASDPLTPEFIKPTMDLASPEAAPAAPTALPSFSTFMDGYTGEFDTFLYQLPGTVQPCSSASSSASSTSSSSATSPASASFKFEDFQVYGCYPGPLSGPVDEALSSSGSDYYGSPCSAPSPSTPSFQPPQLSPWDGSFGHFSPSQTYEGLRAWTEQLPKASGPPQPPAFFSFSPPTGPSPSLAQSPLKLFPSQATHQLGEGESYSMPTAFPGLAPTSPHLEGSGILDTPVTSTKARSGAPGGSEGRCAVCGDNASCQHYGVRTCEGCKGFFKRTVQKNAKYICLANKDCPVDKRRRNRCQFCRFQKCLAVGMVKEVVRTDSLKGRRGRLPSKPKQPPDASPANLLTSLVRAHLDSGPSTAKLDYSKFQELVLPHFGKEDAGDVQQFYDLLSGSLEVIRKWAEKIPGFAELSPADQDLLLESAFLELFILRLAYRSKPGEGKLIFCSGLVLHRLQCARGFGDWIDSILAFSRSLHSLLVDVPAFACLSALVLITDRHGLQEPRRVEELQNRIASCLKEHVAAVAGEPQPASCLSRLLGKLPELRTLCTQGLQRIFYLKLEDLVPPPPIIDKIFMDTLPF

SMILES: Oc1ccc(C(c2c[nH]c3ccccc23)c2c[nH]c3ccccc23)cc1Cl [C-DIM8-3-Cl]
- tumor growth [1]: inhibited tumor growth
- ED50 values for tumor growth inhibition [1]: low mg/kg/day or high μg/kg/day range
- expression of NR4A1 (NR4A1, Rab4, AMPK): increased

SMILES: Oc1cccc(C(c2c[nH]c3ccccc23)c2c[nH]c3ccccc23)c1Br [2 bromo (3-hydroxy analog)]
- potency in NR4A1-dependent transactivation vs unsubstituted 3- and 4-hydroxy DIM standards (GAL4-NR4A1; substituted 3-hydroxy DIM analogs, FIG. 7): more potent

SMILES: Oc1cccc(C(c2c[nH]c3ccccc23)c2c[nH]c3ccccc23)c1 [3-hydroxy compound]
- potency order for inducing SERPINB5 (SERPINB5 [2]): 2-OH/3-OH>4-OH
- potency in down-regulation of β1-integrin and TXNDC5 vs the 4-hydroxy compound (β1-integrin and TXNDC5): more potent
- NR4A2 activity (GAL4-NR4A2) compared to the 4-bromo reference (GAL4-NR4A2): minimal

SMILES: Oc1c(Br)cc(C(c2c[nH]c3ccccc23)c2c[nH]c3ccccc23)cc1Br [C-DIM8-3,5-Br2]
- tumor growth [1]: inhibited tumor growth
- ED50 values for tumor growth inhibition [1]: low mg/kg/day or high μg/kg/day range
- expression of NR4A1 (NR4A1, Rab4, AMPK): increased
- RMS tumor growth (RMS xenograft tumor; 0.25 mg/kg/d): tumor growth inhibition
- RMS tumor growth (RMS xenograft tumor; doses of 10.0, 7.5, 5.0 and 2.5 mg/kg/day): complete tumor growth inhibition
- toxicity (RMS xenograft tumor; in vivo study, RMS xenograft): not observed
- G6Pase and PEPCK mRNA levels (G6Pase and PEPCK): inhibit

SMILES: CN(C)C(=N)N=C(N)N [metformin]
- expression of glycolytic genes PFKM, PGAM2, BPGM, PYGM (PFKM, PGAM2, BPGM, PYGM): significantly induced
- NR4A1 and GLUT-4 gene expression [3]: induce

SMILES: Oc1ccccc1C(c1c[nH]c2ccccc12)c1c[nH]c2ccccc12 [2-hydroxy compound]
- potency order for inducing SERPINB5 (SERPINB5 [2]): 2-OH/3-OH>4-OH
- potency in down-regulation of β1-integrin and TXNDC5 vs the 4-hydroxy compound (β1-integrin and TXNDC5): more potent
- NR4A2 activity (GAL4-NR4A2) compared to the 4-bromo reference (GAL4-NR4A2): minimal

SMILES: COc1cc(C(c2c[nH]c3ccccc23)c2c[nH]c3ccccc23)cc(Cl)c1O [C-DIM8-3-Cl-5-OCH3]
- serum glucose levels in a glucose tolerance test compared to control animals ([4]; 10 mg/kg/d): decreased
- serum glucose ([4]; 25 mg/kg/d, current study): decreased
- serum insulin levels ([4]; 25 mg/kg/d, current study): increased
- blood glucose levels ([4]; HFD C57BL/6 mice, 10 mg/kg/d in corn oil, every second day, oral gavage): significant decrease
- tumor growth [1]: inhibited tumor growth
- ED50 values for tumor growth inhibition [1]: low mg/kg/day or high μg/kg/day range
- expression of NR4A1 (NR4A1, Rab4, AMPK): increased

SMILES: Oc1ccc(C(c2c[nH]c3ccccc23)c2c[nH]c3ccccc23)cc1F [3-fluoro-4-hydroxy analog]
- potency as inhibitors of NR4A1-dependent transactivation relative to the 4-hydroxy reference compound (GAL4-NR4A1; tested at 7.5 μM and 15 μM): exception

SMILES: Brc1ccc(C(c2c[nH]c3ccccc23)c2c[nH]c3ccccc23)cc1 [DIM-C-pPhBr, 1,1-bis(3′-indolyl)-1-(p-bromophenyl)methane]
- SPR binding to NR4A2 (NR4A2 LBD): sticky interactions
- SPR binding to NR4A1 (NR4A1 LBD): sticky interactions

SMILES: Oc1ccc(C(c2c[nH]c3ccccc23)c2c[nH]c3ccccc23)cc1 [DIM-C-pPhOH]
- partial tumor growth inhibition (tumor growth; 30-40 mg/kg/day, previous studies): 40-50%
- doses at which tumor growth is (partially) inhibited (tumor growth; mouse, in vivo): 30 to 40 mg/kg/day
- doses at which tumor growth is only partially inhibited (tumor growth; mouse, in vivo): 40 to 50 mg/kg/day
- decreased expression of TXNDC5 and PAX3-FOX01A (TXNDC5 and PAX3-FOX01A): 50-60%
- in vivo half-life [5]: short; also recorded: very short
- serum half-life ([5]; in vivo): relatively short
- induction of SERPINB5 (SERPINB5 [2]; SKBR3 cells, 20 μM, DMSO control value relatively high): minimally induced
- potency order for inducing SERPINB5 (SERPINB5 [2]): 2-OH/3-OH>4-OH
- glucose uptake (C2C12 cells): significantly induced
- NR4A1 and GLUT-4 gene expression [3]: induce
- concentration of maximal induction of NR4A1 and GLUT-4 gene expression [3]: 20 µM
- expression of NR4A1 (NR4A1, Rab4, AMPK): increased
- induction of SERPINB5 (SERPINB5 [6]): induced SERPINB5
- receptor-independent activities such as mitochondrial toxicity (cancer cell lines; cancer cell lines): minimal
- concentrations that block the pro-oncogenic pathways (cancer cell lines; cell culture): 10 to 20 µM
- binding to NR4A1 (NR4A1): high affinity
- concentration at which significant inhibition of GAL4-NR4A1 transactivation was observed (GAL4-NR4A1; not at 15 μM (steep dose response curve)): 22.5 µM
- SPR binding to NR4A1 (NR4A1 LBD): bound with high affinity
- G6Pase and PEPCK mRNA levels (G6Pase and PEPCK): inhibit
